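A five-concentration, 48-hour dose response in 96-well plates underlies each endpoint, interpolated linearly between surrounding concentrations. The concentration for 50% growth inhibition is given as GI50. TGI: total growth inhibition.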
How the values were obtained:
Test in all cases: NCI anticancer screen, dose series, 48 h
786-0 renal = test system: 786-0 renal
A498 renal = test system: A498 renal
ACHN renal = test system: ACHN renal
BT-549 breast = test system: BT-549 breast
CAKI-1 renal = test system: CAKI-1 renal
CCRF-CEM leukemia = test system: CCRF-CEM leukemia
COLO 205 colon = test system: COLO 205 colon
DU-145 prostate = test system: DU-145 prostate
EKVX NSCLC = test system: EKVX NSCLC
HCC-2998 colon = test system: HCC-2998 colon
HCT-116 colon = test system: HCT-116 colon
HCT-15 colon = test system: HCT-15 colon
HL-60(TB) leukemia = test system: HL-60(TB) leukemia
HOP-92 NSCLC = test system: HOP-92 NSCLC
HS 578T breast = test system: HS 578T breast
IGROV1 ovarian = test system: IGROV1 ovarian
K-562 leukemia = test system: K-562 leukemia
LOX IMVI melanoma = test system: LOX IMVI melanoma
M14 melanoma = test system: M14 melanoma
MALME-3M melanoma = test system: MALME-3M melanoma
MCF7 breast = test system: MCF7 breast
MDA-MB-231 breast = test system: MDA-MB-231 breast
MDA-MB-435 = test system: MDA-MB-435
MDA-MB-468 breast = test system: MDA-MB-468 breast
MOLT-4 leukemia = test system: MOLT-4 leukemia
NCI-H226 lung = test system: NCI-H226 lung
NCI-H23 lung = test system: NCI-H23 lung
NCI/ADR-RES ovarian = test system: NCI/ADR-RES ovarian
OVCAR-3 ovarian = test system: OVCAR-3 ovarian
OVCAR-5 ovarian = test system: OVCAR-5 ovarian
OVCAR-8 ovarian = test system: OVCAR-8 ovarian
RPMI-8226 leukemia = test system: RPMI-8226 leukemia
SF-268 CNS = test system: SF-268 CNS
SF-295 CNS = test system: SF-295 CNS
SF-539 CNS = test system: SF-539 CNS
SK-MEL-2 melanoma = test system: SK-MEL-2 melanoma
SK-MEL-28 melanoma = test system: SK-MEL-28 melanoma
SK-MEL-5 melanoma = test system: SK-MEL-5 melanoma
SK-OV-3 ovarian = test system: SK-OV-3 ovarian
SN12C renal = test system: SN12C renal
SNB-19 CNS = test system: SNB-19 CNS
SNB-75 CNS = test system: SNB-75 CNS
SR leukemia = test system: SR leukemia
TK-10 renal = test system: TK-10 renal
UACC-62 melanoma = test system: UACC-62 melanoma
UO-31 renal = test system: UO-31 renal

Cn1cc(-c2cc3nc(-c4c[nH]c5ccccc45)cc(N)n3n2)c2ccccc21
GI50 (786-0 renal): 1.51 µM
TGI (786-0 renal): 2.94 µM
GI50 (A498 renal): 19.7 µM
TGI (A498 renal): 44.6 µM
GI50 (ACHN renal): 1.76 µM
TGI (ACHN renal): 3.22 µM
GI50 (BT-549 breast): 12.4 µM
TGI (BT-549 breast): 54.4 µM
GI50 (CAKI-1 renal): 1.68 µM
TGI (CAKI-1 renal): 3.31 µM
GI50 (CCRF-CEM leukemia): 1.95 µM
TGI (CCRF-CEM leukemia): 4.2 µM
GI50 (COLO 205 colon): 1.75 µM
TGI (COLO 205 colon): 3.29 µM
GI50 (DU-145 prostate): 2.04 µM
TGI (DU-145 prostate): 4.73 µM
GI50 (EKVX NSCLC): 1.65 µM
TGI (EKVX NSCLC): 3.16 µM
GI50 (HCC-2998 colon): 1.65 µM
TGI (HCC-2998 colon): 3.06 µM
GI50 (HCT-116 colon): 1.8 µM
TGI (HCT-116 colon): 3.3 µM
GI50 (HCT-15 colon): 1.6 µM
TGI (HCT-15 colon): 3.01 µM
GI50 (HL-60(TB) leukemia): 1.5 µM
TGI (HL-60(TB) leukemia): 3.22 µM
GI50 (HOP-92 NSCLC): 1.94 µM
TGI (HOP-92 NSCLC): 3.75 µM
GI50 (HS 578T breast): 2.55 µM
TGI (HS 578T breast): 6.28 µM
GI50 (IGROV1 ovarian): 1.77 µM
TGI (IGROV1 ovarian): 3.26 µM
GI50 (K-562 leukemia): 1.74 µM
TGI (K-562 leukemia): 3.54 µM
GI50 (LOX IMVI melanoma): 1.86 µM
TGI (LOX IMVI melanoma): 3.35 µM
GI50 (M14 melanoma): 1.75 µM
TGI (M14 melanoma): 3.34 µM
GI50 (MALME-3M melanoma): 1.87 µM
TGI (MALME-3M melanoma): 3.37 µM
GI50 (MCF7 breast): 1.68 µM
TGI (MCF7 breast): 3.39 µM
GI50 (MDA-MB-231 breast): 1.94 µM
TGI (MDA-MB-231 breast): 3.35 µM
GI50 (MDA-MB-435): 1.78 µM
TGI (MDA-MB-435): 3.46 µM
GI50 (MDA-MB-468 breast): 1.55 µM
TGI (MDA-MB-468 breast): 2.93 µM
GI50 (MOLT-4 leukemia): 1.77 µM
TGI (MOLT-4 leukemia): 3.92 µM
GI50 (NCI-H226 lung): 2.2 µM
TGI (NCI-H226 lung): 4.98 µM
GI50 (NCI-H23 lung): 1.75 µM
TGI (NCI-H23 lung): 3.32 µM
GI50 (NCI/ADR-RES ovarian): 1.78 µM
TGI (NCI/ADR-RES ovarian): 3.41 µM
GI50 (OVCAR-3 ovarian): 1.74 µM
TGI (OVCAR-3 ovarian): 3.4 µM
GI50 (OVCAR-5 ovarian): 1.82 µM
TGI (OVCAR-5 ovarian): 3.3 µM
GI50 (OVCAR-8 ovarian): 1.9 µM
TGI (OVCAR-8 ovarian): 3.97 µM
GI50 (RPMI-8226 leukemia): 2.11 µM
TGI (RPMI-8226 leukemia): 5.07 µM
GI50 (SF-268 CNS): 2.4 µM
TGI (SF-268 CNS): 7.17 µM
GI50 (SF-295 CNS): 1.64 µM
TGI (SF-295 CNS): 3.19 µM
GI50 (SF-539 CNS): 1.75 µM
TGI (SF-539 CNS): 3.13 µM
GI50 (SK-MEL-2 melanoma): 1.87 µM
TGI (SK-MEL-2 melanoma): 3.73 µM
GI50 (SK-MEL-28 melanoma): 1.74 µM
TGI (SK-MEL-28 melanoma): 3.18 µM
GI50 (SK-MEL-5 melanoma): 1.95 µM
TGI (SK-MEL-5 melanoma): 4.1 µM
GI50 (SK-OV-3 ovarian): 10.5 µM
TGI (SK-OV-3 ovarian): 46.8 µM
GI50 (SN12C renal): 1.87 µM
TGI (SN12C renal): 3.49 µM
GI50 (SNB-19 CNS): 3.43 µM
TGI (SNB-19 CNS): 17.3 µM
GI50 (SNB-75 CNS): 1.74 µM
TGI (SNB-75 CNS): 3.93 µM
GI50 (SR leukemia): 1.95 µM
TGI (SR leukemia): 5.9 µM
GI50 (TK-10 renal): 1.77 µM
TGI (TK-10 renal): 4.65 µM
GI50 (UACC-62 melanoma): 1.64 µM
TGI (UACC-62 melanoma): 3.06 µM
GI50 (UO-31 renal): 1.54 µM
TGI (UO-31 renal): 2.93 µM
